{"source": "PubChem BioAssay AID1963843", "about": "(Molecular Pharmacology Branch, DTP, NCI, 2024);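 further: spheroids exposed to compounds for one week before readout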;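 on viability, T/C: percent viability relative to DMSO vehicle wells taken as 100%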", "test_system": "616215-338-R-J1-PDC complex spheroid viability", "experiment": "Anticancer human tumor 616215-338-R-J1-PDC patient-derived colon adenocarcinoma cell line growth inhibition [POLQ]", "conditions": "for IC50: curve of first compound; for viability, T/C: stronger effect = lower value", "description": "Multicellular complex tumor spheroid response to Polymerase (POL) inhibitors (novobiocin, ART-558, RP6685) in combination with a variety of drugs and investigational agents in selected tumor cell lines\nThe POL inhibitors (novobiocin, ART-558, and RP6685) were evaluated both individually and in combination with standard of care and investigational anticancer small molecules within a complex spheroid model of solid tumors. . Complex spheroids include a stromal component modeled by human endothelial cells (HUVEC) and fibroblasts modeled by human mesenchymal stem cells (MSCs). The concentration ranges selected for each drug and investigational agent were based upon clinically achievable concentrations if the clinical Cmax of the agent was known.\nCompounds. The drugs and investigational agents: novobiocin (NSC847541), ART-558 (NSC835418), RP-6685 (NSC848927), peposertib (NSC802822), ceralasertib (NSC780249), elimusertib (NSC800525), camonsertib (NSC841442), AZD-1390 (NSC803789), olaparib (NSC753686), talazoparib (NSC767125), rucaparib (NSC756644), sotorasib (NSC818433), MRTX-1133 (NSC836407), SN-38 (NSC673596), topotecan (NSC609699), epotoside (NSC141540), doxorubicin (NSC123127), gemcitabine (NSC613327), 5-fluorouracil (NSC19893), paclitaxel (NSC125973), vemurafenib (NSC761431), MSA-2 (NSC828583), SN-011 (NSC837082), adavosertib (NSC754352), prexasertib (NSC758257), carboplatin (NSC241240) and oxaliplatin (NSC266046), were obtained from the National Cancer Institute (NCI) Developmental Therapeutics Program Chemical Repository (21). The FDA-approved anticancer drug set is available from the Developmental Therapeutics Program at https://dtp.cancer.gov/organization/dscb/obtaining/. […] The stock solutions were prepared in dimethyl sulfoxide (DMSO, Sigma-Aldrich, St. Louis, MO, cat. D2650), except for the platinum compounds which were prepared in saline (Quality Biological, Gaithersburg, MD, cat. 114-055-101), at 800-fold the tested concentration and stored at -70 degrees C prior to their use. All drugs and investigational agents were tested over a range starting from a high concentration at or near the clinical Cmax and decreasing in half-log increments. If the clinical Cmax for an agent had not been determined, the highest concentration tested was 10 microM, except for SN-38, which was tested at a high concentration of 1 microM.\nCell Culture. All cells were maintained in an incubator at 37 degrees C and 5% CO2 with 95% humidity. The PDC lines were cultured according to standard operating procedures established by the NCI PDMR (https://pdmr.cancer.gov). Table 3 of the manuscript, lists the cell lines along with the number of the three cell types plated to form the mct-spheroids and media for tumor cell growth. After thawing, all PDC lines, except 997537-175-T-J1-PDC and 415267-285-R-J2-PDC, were cultured in Matrigel-coated flasks prepared with a working solution of 1X Ham's F-12 nutrient mix, without supplementation (Thermo Fisher Scientific, cat. 11765054), 100 U/mL penicillin-streptomycin (Thermo Fisher Scientific, cat. 15140122), and 2.5% Matrigel (Corning Inc., Corning, NY, cat. 354248) for the first three passages. The two PDC lines 997537-175-T-J1-PDC and 415267-285-R-J2-PDC were cultured on uncoated flasks. The 857933-349-R-J2-PDC line was cultured in 6C/Colon 1B media containing advanced DMEM/F-12 (Thermo Fisher Scientific, cat. 12634028), 10 mM HEPES (Thermo Fisher Scientific, cat. 15630080), 1X GlutaMAX supplement (Thermo Fisher Scientific, cat. 35050061), 0.1 mg/mL primocin (InvivoGen, San Diego, CA, cat. ant-pm-2), 10% defined fetal bovine serum, heat inactivated (HyClone Laboratories Inc., Logan, UT, cat. SH30070.03HI), 50% L-WRN conditioned media (ATCC, cat. CRL-3276), 1.25 mM N-Acetyl-L-cysteine (Sigma-Aldrich, cat. A9165), 10 mM nicotinamide (Sigma-Aldrich, cat. N0636), 1X B-27 supplement (Thermo Fisher Scientific, cat. 17504044), 1X N-2 supplement (Thermo Fisher Scientific, cat. […]"}
{"smiles": "C=CC(=O)N1CCN(c2nc(=O)n(-c3c(C)ccnc3C(C)C)c3nc(-c4c(O)cccc4F)c(F)cc23)C(C)C1", "note": "(configuration not stated) + COC1C(OC(N)=O)C(O)C(Oc2ccc3c(O)c(NC(=O)c4ccc(O)c(CC=C(C)C)c4)c(=O)oc3c2C)OC1(C)C", "values": [{"measurement": "IC50", "setting": "second compound 0.0316 µM", "result": "> 10", "unit": "µM"}, {"measurement": "IC50", "setting": "second compound 0.1 µM", "result": "> 10", "unit": "µM"}, {"measurement": "IC50", "setting": "second compound 0.316 µM", "result": "> 10", "unit": "µM"}, {"measurement": "IC50", "setting": "second compound 1 µM", "result": "> 10", "unit": "µM"}, {"measurement": "IC50", "setting": "second compound 3.16 µM", "result": "> 10", "unit": "µM"}, {"measurement": "IC50", "setting": "second compound 10 µM", "result": "> 10", "unit": "µM"}, {"measurement": "viability, T/C", "setting": "second compound 0.0316 µM, first compound 0.0316 µM", "result": 105, "unit": "%"}, {"measurement": "viability, T/C", "setting": "second compound 0.0316 µM, first compound 0.1 µM", "result": 99.7, "unit": "%"}, {"measurement": "viability, T/C", "setting": "second compound 0.0316 µM, first compound 0.316 µM", "result": 98.4, "unit": "%"}, {"measurement": "viability, T/C", "setting": "second compound 0.0316 µM, first compound 1 µM", "result": 108, "unit": "%"}, {"measurement": "viability, T/C", "setting": "second compound 0.0316 µM, first compound 3.16 µM", "result": 113, "unit": "%"}, {"measurement": "viability, T/C", "setting": "second compound 0.0316 µM, first compound 10 µM", "result": 106, "unit": "%"}, {"measurement": "viability, T/C", "setting": "second compound 0.1 µM, first compound 0.0316 µM", "result": 98.4, "unit": "%"}, {"measurement": "viability, T/C", "setting": "second compound 0.1 µM, first compound 0.1 µM", "result": 98.1, "unit": "%"}, {"measurement": "viability, T/C", "setting": "second compound 0.1 µM, first compound 0.316 µM", "result": 98, "unit": "%"}, {"measurement": "viability, T/C", "setting": "second compound 0.1 µM, first compound 1 µM", "result": 93.3, "unit": "%"}, {"measurement": "viability, T/C", "setting": "second compound 0.1 µM, first compound 3.16 µM", "result": 104, "unit": "%"}, {"measurement": "viability, T/C", "setting": "second compound 0.1 µM, first compound 10 µM", "result": 87.8, "unit": "%"}, {"measurement": "viability, T/C", "setting": "second compound 0.316 µM, first compound 0.0316 µM", "result": 104, "unit": "%"}, {"measurement": "viability, T/C", "setting": "second compound 0.316 µM, first compound 0.1 µM", "result": 99.7, "unit": "%"}, {"measurement": "viability, T/C", "setting": "second compound 0.316 µM, first compound 0.316 µM", "result": 99.6, "unit": "%"}, {"measurement": "viability, T/C", "setting": "second compound 0.316 µM, first compound 1 µM", "result": 95, "unit": "%"}, {"measurement": "viability, T/C", "setting": "second compound 0.316 µM, first compound 3.16 µM", "result": 107, "unit": "%"}, {"measurement": "viability, T/C", "setting": "second compound 0.316 µM, first compound 10 µM", "result": 95.8, "unit": "%"}, {"measurement": "viability, T/C", "setting": "second compound 1 µM, first compound 0.0316 µM", "result": 96.9, "unit": "%"}, {"measurement": "viability, T/C", "setting": "second compound 1 µM, first compound 0.1 µM", "result": 95.8, "unit": "%"}, {"measurement": "viability, T/C", "setting": "second compound 1 µM, first compound 0.316 µM", "result": 94, "unit": "%"}, {"measurement": "viability, T/C", "setting": "second compound 1 µM, first compound 1 µM", "result": 101, "unit": "%"}, {"measurement": "viability, T/C", "setting": "second compound 1 µM, first compound 3.16 µM", "result": 105, "unit": "%"}, {"measurement": "viability, T/C", "setting": "second compound 1 µM, first compound 10 µM", "result": 90.6, "unit": "%"}, {"measurement": "viability, T/C", "setting": "second compound 3.16 µM, first compound 0.0316 µM", "result": 94.8, "unit": "%"}, {"measurement": "viability, T/C", "setting": "second compound 3.16 µM, first compound 0.1 µM", "result": 103, "unit": "%"}, {"measurement": "viability, T/C", "setting": "second compound 3.16 µM, first compound 0.316 µM", "result": 94.3, "unit": "%"}, {"measurement": "viability, T/C", "setting": "second compound 3.16 µM, first compound 1 µM", "result": 95, "unit": "%"}, {"measurement": "viability, T/C", "setting": "second compound 3.16 µM, first compound 3.16 µM", "result": 104, "unit": "%"}, {"measurement": "viability, T/C", "setting": "second compound 3.16 µM, first compound 10 µM", "result": 70.4, "unit": "%"}, {"measurement": "viability, T/C", "setting": "second compound 10 µM, first compound 0.0316 µM", "result": 99.7, "unit": "%"}, {"measurement": "viability, T/C", "setting": "second compound 10 µM, first compound 0.1 µM", "result": 94.3, "unit": "%"}, {"measurement": "viability, T/C", "setting": "second compound 10 µM, first compound 0.316 µM", "result": 98, "unit": "%"}, {"measurement": "viability, T/C", "setting": "second compound 10 µM, first compound 1 µM", "result": 102, "unit": "%"}, {"measurement": "viability, T/C", "setting": "second compound 10 µM, first compound 3.16 µM", "result": 102, "unit": "%"}, {"measurement": "viability, T/C", "setting": "second compound 10 µM, first compound 10 µM", "result": 83.6, "unit": "%"}]}
